Assay results as given in patent EP4755885A1 (Shanghai Hansoh Biomedical Co., Ltd., priority 2023, dated 2025).
Where two headings read alike, the source gives them in different places.

What was measured:
[1] = Pharmacokinetic evaluation in mice, oral administration; format: in vivo, Balb/c mice; details: p.o. 5 mg/kg, plasma, single PK; for AUC(0-inf) / AUC(0-t) / Cmax / Tmax / MRT inf: mouse, in vivo, po; for MRT inf: read-out: MRT 0-∞
In short: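 Male Balb/c mice (n=3) dosed p.o. at 5 mg/kg after overnight fast, vehicle 10% PEG400/10% PG/80% glycine buffer (pH 10), 0.5 mg/mL. EDTA plasma, acetonitrile precipitation, compound quantified by LC/MS/MS; PK parameters by noncompartmental-style software calculation.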

[2] = Long-term administration, body weight and food intake of mice fed with CDAHFD high-fat diet; format: in vivo, GLP-1R humanized C57BL/6 mice
Source text: The purpose of this assay was to evaluate the effects of long-term administration of the compound on the body weight and food intake of GLP-1R humanized C57BL/6 mice fed with CDAHFD high-fat diet.
C57BL/6_hGLP-1R, male, 5-8 weeks, purchased from Biocytogen Pharmaceuticals (Beijing) Co., Ltd. • Choline-deficient, L-amino acid-defined, high-fat diet (CDAHFD), purchased from Shanghai Bopai Biotechnology Co., Ltd. (Research diet-A06071302) • Ultra-clean bench (CJ-2F, Suzhou Fengshi Experimental Animal Equipment Co., Ltd. • Electronic balance (BSA2202S-CW, Sartorius)
• 3.1 On the day of starting feeding the high-fat diet, the C57BL/6 mice were randomly grouped according to body weight. The first group was Blank, with 7 mice, and was fed with normal control diet. The remaining animals were the modeling group, and were fed with the high-fat diet until the end of the experiment. • 3.2 In week 4 of CDAHFD feeding, the animals in the modeling group were randomly grouped according to body weight, with 7 mice in each group. The first group was Vehicle group (Vehicle: 10%PEG400/10%PG/80% glycine buffer (100 mM glycine, 26 mM NaOH, pH 9) buffer), and was administered solvent; the remaining group was administration group. Administration regime: the corresponding compound was orally administered for a period of 21 days, once each day, the administration dose being 0.3 mg/kg, 1 mg/kg, 3 mg/kg, and 10 mg/kg, and the administration volume being 10 mL/kg. The Blank group continued to be fed with the normal diet, and was orally administered solvent once each day. • 3.3 The day of administration was defined as Day 0. • 3.4 The animals were weighed at each administration and the data were recorded. Oral administration was performed according to body weight, and the administration volume was 10 mL/kg. • 3.5 Starting from day 0 of the experiment, the food intake of the mice in each group was measured every three days. Specifically, after each weighing and administration, the diet was renewed, and the added amount and remaining amount were recorded. • 3.6 On Day 21, the end day, all mice were euthanized sequentially according to grouping order. Plasma and tissues (liver, kidney, ileum, pancreas, and brain) were taken for PK determination, and serum was taken for blood biochemistry determination (ALT, AST, TG, TC, and LDL-C).
The body weight and body weight change rate of the mice after administration were summarized and statistically analyzed. The body weight change rate was calculated according to (BWt - BW0) / BW0 × 100%, where BWt represents mouse body weight on day t of the experiment, and BW0 represents mouse body weight on day 0 of the experiment.

human GLP-1 receptor = molecular target: T1, human GLP-1 receptor (Homo sapiens, UniProt P43220); assay: cAMP production in cell line stably transformed with human GLP1 receptor, 2 h co-incubation (HTRF); format: cell-based; details: CHO-K1/GLP-1R/CRE-luc cells, stimulation for 2 h
T1 construct: expressed in transfected cells
In short: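 CHO-K1/GLP-1R/CRE-luc cells (human GLP-1R) incubated 2 h at 37 °C with compound (12-point 3-fold series) and 0.5 mM IBMX in DMEM/F12 with 0.1% casein. cAMP measured by HTRF (665/620 nm ratio); EC50 from four-parameter fit.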

[3] = 3 mg/kg orally once each day for 21 days

T1 sequence (P43220 24-463): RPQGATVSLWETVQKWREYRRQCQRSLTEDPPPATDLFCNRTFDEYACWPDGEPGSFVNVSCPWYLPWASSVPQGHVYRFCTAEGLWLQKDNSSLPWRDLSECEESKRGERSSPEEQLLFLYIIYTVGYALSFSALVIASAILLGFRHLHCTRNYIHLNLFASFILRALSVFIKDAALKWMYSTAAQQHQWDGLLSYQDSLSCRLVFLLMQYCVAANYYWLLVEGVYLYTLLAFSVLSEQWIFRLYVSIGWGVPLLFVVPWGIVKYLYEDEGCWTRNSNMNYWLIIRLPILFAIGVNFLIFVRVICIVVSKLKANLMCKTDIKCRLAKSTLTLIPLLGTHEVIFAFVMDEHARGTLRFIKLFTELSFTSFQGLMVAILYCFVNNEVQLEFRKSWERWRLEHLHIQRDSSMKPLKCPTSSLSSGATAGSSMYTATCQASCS

SMILES	AUC(0-inf) [1] [ng·h/mL]	AUC(0-t) [1] [ng·h/mL]	Cmax [1] [ng/mL]	Tmax [1] [h]	MRT inf [1] [h]	tl/2 [1] [h]	Body weight change (%)- [2, 3] [%]	EC50 (human GLP-1 receptor) [nM]	AUC(0-inf) ([1]; male, Balb/c) [ng·h/mL]	AUC(0-t) ([1]; male, Balb/c) [ng·h/mL]	Cmax ([1]; male, Balb/c) [ng/mL]	Tmax ([1]; male, Balb/c) [h]	MRT inf ([1]; male, Balb/c) [h]	EC50 (human GLP-1 receptor; read-out: EC50) [nM]	Body weight change (%)- ([2]; 0.3mg/kg orally once each day for 21 days) [%]	Body weight change (%)- ([2]; 1 mg/kg orally once each day for 21 days) [%]
Cc1cc(-n2nc3c(c2-n2ccn(-c4ccc5c(cnn5C5CC5)c4F)c2=O)[C@H](C)N(C(=O)c2cc4cc([C@H]5CCOC(C)(C)C5)ccc4n2[C@@]2(c4noc(=O)[nH]4)C[C@@H]2COC2CC2)CC3)cc(C)c1F [Example 67]	12100	11200	1430	4	8.2	7.6	-20.34	0.024	–	–	–	–	–	–	–	–
C#C[C@H]1C[C@]1(c1noc(=O)[nH]1)n1c(C(=O)N2CCc3nn(-c4cc(C)c(F)c(C)c4)c(-n4ccn(-c5ccc6c(cnn6C6CC6)c5F)c4=O)c3[C@@H]2C)cc2cc([C@H]3CCOC(C)(C)C3)ccc21 [Example 143]	–	–	–	–	–	6.9	-19.43	–	13300	12200	1200	2	9	0.013	–	–
CC#C[C@H]1C[C@]1(c1noc(=O)[nH]1)n1c(C(=O)N2CCc3nn(-c4cc(C)c(F)c(C)c4)c(-n4ccn(-c5ccc6c(cnn6C6CC6)c5F)c4=O)c3[C@@H]2C)cc2cc([C@H]3CCOC(C)(C)C3)ccc21 [Example 144, 3-((1S,2R)-1-(2-((S)-3-(3-(1-cyclopropyl-4-fluoro-1H-indazole-5-yl)-2-carbonyl-2,3-dihydro-1H-imidazole-1-yl)-2-(4-fluoro-3,5-dimethylphenyl)-4-methyl-4,5,6,7-tetrahydro-2H-pyrazolo[4,3-c]pyridin-5-carbonyl)-5-((S)-2,2-dimethyltetrahydro-2H-pyrano-4-yl)-1H-indole-1-yl)-2-(propyl-1-alkynyl-1-yl)cyclopropyl)-1,2,4-oxadiazol-5(4H)-one]	35100	23500	2240	3	20.8	15.7	–	–	–	–	–	–	–	0.05	-10.40	-14.70
[2H]C([2H])([2H])n1nc2c3c(c(-n4ccn(-c5c6c(nn5-c5cc(C)c(F)c(C)c5)CCN(C(=O)c5cc7cc([C@H]8CCOC(C)(C)C8)ccc7n5[C@@]5(c7noc(=O)[nH]7)C[C@@H]5C)[C@H]6C)c4=O)ccc31)OCCC2 [Example 282, 3-((1S,2S)-1-(5-((S)-2,2-dimethyltetrahydro-2H-pyran-4-yl)-2-((S)-2-(4-fluoro-3,5-dimethylphenyl)-4-methyl-3-(3-(2-(methyl-d3)-2,7,8,9-tetrahydrooxaheptano[4,3,2-cd]indazol-5-yl)-2-carbonyl-2,3-dihydro-1H-imidazol-1-yl)-4,5,6,7-tetrahydro-2H-pyrazolo[4,3-c]pyridine-5-carbonyl)-1H-indol-1-yl)-2-methylcyclopropyl)-1,2,4-oxadiazol-5(4H)-one]	18200	15000	1510	2	13	9.7	–	–	–	–	–	–	–	0.074	–	–
